# Data: patent US8207209B2, “Methods of inhibiting viral infection” (priority 2007, dated 2012)
# Test system: Ebola virus
# Set-up: species or system mice
# Settings: mouse, in vivo
Compound,effectiveness of single dose 4 days after challenge,protection
"N=C(N)c1ccc2oc(C=Cc3nc4ccc(C(=N)N)cc4[nH]3)cc2c1 [Compound 723, 2-[2-(5-carbamimidoyl-benzofuran-2-yl)-vinyl]-3H-benzoimidazole-5-carboxamidine]",effectiveness,
"Cc1cc(NCCCN(C)C)c2ccc3c(ccc4c(NCCCN(C)C)cc(C)nc43)c2n1.Cl.Cl.Cl.Cl [Compound 365, Quino[8,7-h]quinoline-1,7-diamine,N,N′-bis[3-(dimethylamino)propyl]-3,9-dimethyl-tetrahydrochloride]",,100%
